What was measured:
[1] = target: T1, human Cot catalytic domain (30-397 amino acids) (Homo sapiens, UniProt P41279); experiment: High Throughput Cot Biochemical Assay (KinEASE TR-FRET); details: Cot KinEASE TR-FRET (HTRF) biochemical assay, 400 μM ATP; read-out: IC50 HTRF
T1 construct: Purified recombinant human Cot catalytic domain (30-397 amino acids) was purchased from Cama Biosciences; purchased Cama Biosciences (so in the source)
Outline: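 TR-FRET (KinEASE) read-out: Eu-labelled phospho-specific antibody binds XL665-tagged STK3 peptide (1 μM) phosphorylated by 5 nM human Cot kinase domain (residues 30-397). Reaction at 400 μM ATP, pH 7.0 MOPS buffer with 10 mM MgOAc, 1 mM DTT and 0.1% DMSO.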

[2] = system: TNFα production in LPS-stimulated human monocytes; experiment: Cot Monocyte TNFα Cell Based Assay; details: Homo sapiens, Monocyte, TNFα in LPS-stimulated human monocytes; read-out: EC50 TNF
Outline: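 TNFα release quantified by two-antibody TR-FRET, normalised to unstimulated (0%) and LPS-stimulated (100%) wells. Cells got a 1 h compound exposure at 37° C in 0.5% DMSO before 4 h challenge with 50 pg/ml LPS, at 5,000 cells/well.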

T1 sequence (P41279 30-397): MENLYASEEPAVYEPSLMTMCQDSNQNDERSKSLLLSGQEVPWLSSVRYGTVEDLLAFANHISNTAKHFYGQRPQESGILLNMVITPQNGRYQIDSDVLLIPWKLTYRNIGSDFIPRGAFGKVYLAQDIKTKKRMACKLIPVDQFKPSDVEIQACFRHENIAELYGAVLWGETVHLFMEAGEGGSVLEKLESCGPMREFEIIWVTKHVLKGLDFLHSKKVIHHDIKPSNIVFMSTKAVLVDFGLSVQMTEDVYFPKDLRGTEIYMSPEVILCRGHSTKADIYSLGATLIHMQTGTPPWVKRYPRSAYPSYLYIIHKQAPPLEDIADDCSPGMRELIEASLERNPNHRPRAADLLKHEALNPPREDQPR

`CC[C@@H](Nc1c(C#N)cnc2c(Cl)cc(N[C@@H](c3cccc(-c4ccccc4)c3)c3cn(C4CC4)nn3)cc12)c1ccccc1` [Example 94, 6-(((S)-[1,1'-biphenyl]-3-yl(1-cyclopropyl-1H-1,2,3-triazol-4-yl)methyl)amino)-8-chloro-4-(((R)-1-phenylpropyl)amino) quinoline-3-carbonitrile] was tested, and the IC50 [1] was 0.012 µM and the EC50 [2] was > 1 µM.
`CC(C)(C)CNc1c(C#N)cnc2c(Cl)cc(N[C@@H](c3cccc(-c4ccccc4)c3)c3cn(C4CC4)nn3)cc12` [Example 95, (S)-6-(([1,1'-biphenyl]-3-yl(1-cyclopropyl-1H-1,2,3-triazol-4-yl)methyl)amino)-8-chloro-4-(neopentylamino) quinoline-3-carbonitrile] was tested, and the IC50 [1] was 0.024 µM and the EC50 [2] was > 1 µM.
`CC[C@@H](Nc1c(C#N)cnc2c(Cl)cc(N[C@H](c3cn(C4CC4)nn3)c3ccccc3-c3ccccc3)cc12)c1ccccc1` [Example 96, 6-(((S)[1,1'-biphenyl]-2-yl(1-cyclopropyl-1H-1,2,3-triazol-4-yl)methyl)amino)-8-chloro-4-(((R)-1-phenylpropyl)amino) quinoline-3-carbonitrile] was tested, and the IC50 [1] was 0.778 µM and the EC50 [2] was > 1 µM.
For `CC(C)(C)CNc1c(C#N)cnc2c(Cl)cc(N[C@H](c3cn(C4CC4)nn3)c3ccccc3-c3ccccc3)cc12` [Example 97, (S)-6-(([1,1'-biphenyl]-2-yl(1-cyclopropyl-1H-1,2,3-triazol-4-yl)methyl)amino)-8-chloro-4-(neopentylamino) quinoline-3-carbonitrile], the IC50 [1] was 0.985 µM and the EC50 [2] was > 1 µM.
For `[2H][C@](Nc1cc(Cl)c2ncc(C#N)c(NCC(C)(C)C)c2c1)(c1cn(C2CC2(F)F)nn1)c1ccccc1Cl` (stereo partly shown) [Example 99, 8-chloro-6-(((2-chlorophenyl) (1-(2,2-difluorocyclopropyl)-1H-1,2,3-triazol-4-yl)methyl-d)amino)-4-(neopentylamino) quinoline-3-carbonitrile], the IC50 [1] was 0.019 µM and the EC50 [2] was 0.454 µM.
`[2H][C@](Nc1cc(Cl)c2ncc(C#N)c(NCC(C)(C)C)c2c1)(c1cn(C2[C@H]3CN(C4COC4)C[C@@H]23)nn1)c1ccccc1Cl` (stereo partly drawn) [Example 100, 8-chloro-6-(((2-chlorophenyl) (1-((1R,5S,6r)-3-(oxetan-3-yl)-3-azabicyclo[3.1.0]hexan-6-yl)-1H-1,2,3-triazol-4-yl)methyl-d)amino)-4-(neopentylamino) quinoline-3-carbonitrile] was tested, and the IC50 [1] was 0.016 µM and the EC50 [2] was 0.337 µM.
In the case of `[2H][C@@](Nc1cc(Cl)c2ncc(C#N)c(NCC(C)(C)C)c2c1)(c1cn(C2CC2)nn1)c1c(F)cccc1Cl` [Example 101, (S)-8-chloro-6-(((2-chloro-6-fluorophenyl) (1-cyclopropyl-1H-1,2,3-triazol-4-yl)methyl-d)amino)-4-(neopentylamino) quinoline-3-carbonitrile], the IC50 [1] is reported as 0.083 µM and the EC50 [2] is reported as > 1 µM.
`[2H][C@](Nc1cc(I)c2ncc(C#N)c(NCC(C)(C)C)c2c1)(c1ccc(F)cc1)c1cn(C2CC2)nn1` [Example 102, (S)-6-(((1-cyclopropyl-1H-1,2,3-triazol-4-yl)(4-fluorophenyl)methyl-d)amino)-8-iodo-4-(neopentylamino) quinoline-3-carbonitrile] was tested, and the IC50 [1] was 0.058 µM and the EC50 [2] was > 1 µM.
In the case of `[2H][C@@](Nc1cc(Cl)c2ncc(C#N)c(NCC(C)(C)C)c2c1)(c1cn(CC2(F)COC2)nn1)c1ccccc1Cl` [Example 103, 8-chloro-6-(((2-chlorophenyl) (1-((3-fluorooxetan-3-yl)methyl)-1H-1,2,3-triazol-4-yl)methyl-d)amino)-4-(neopentylamino) quinoline-3-carbonitrile], the IC50 [1] is reported as 0.05 µM and the EC50 [2] is reported as 0.522 µM.
Work on `[2H][C@@](Nc1cc(Cl)c2ncc(C#N)c(NCC(C)(C)C)c2c1)(c1cn(CC2(O)COC2)nn1)c1ccccc1Cl` [Example 104, 8-chloro-6-(((2-chlorophenyl) (1-((3-hydroxyoxetan-3-yl)methyl)-1H-1,2,3-triazol-4-yl)methyl-d)amino)-4-(neopentylamino) quinoline-3-carbonitrile] yielded an IC50 [1] of 0.023 µM and an EC50 [2] of 0.584 µM.
With `[2H]C(Nc1cc(Cl)c2ncc(C#N)c(NCC(C)(C)C)c2c1)(c1cn(C2(C(F)(F)F)CC2)nn1)c1ccccc1Cl` (stereo not shown) [Example 106, 8-chloro-6-(((2-chlorophenyl) (1-(1-(trifluoromethyl)cyclopropyl)-1H-1,2,3-triazol-4-yl)methyl-d)amino)-4-(neopentylamino) quinoline-3-carbonitrile] the IC50 [1] was 0.058 µM and the EC50 [2] was 0.826 µM.
Work on `[2H]C(Nc1cc(Cl)c2ncc(C#N)c(NCC(C)(C)C)c2c1)(c1cn(C2(C)CC2)nn1)c1ccccc1Cl` (stereo not shown) [Example 107, 8-chloro-6-(((2-chlorophenyl)(1-(1-methylcyclopropyl)-1H-1,2,3-triazol-4-yl)methyl-d)amino)-4-(neopentylamino) quinoline-3-carbonitrile] yielded an IC50 [1] of 0.014 µM and an EC50 [2] of 0.272 µM.
`[2H][C@@](Nc1cc(Cl)c2ncc(C#N)c(NCC(C)(C)C)c2c1)(c1cn(CC(=O)O)nn1)c1ccccc1Cl` [Example 108, (S)-2-(4-(((8-chloro-3-cyano-4-(neopentylamino)quinolin-6-yl)amino)(2-chlorophenyl)methyl-d)-1H-1,2,3-triazol-1-yl)acetic acid] was tested, and the IC50 [1] was 0.048 µM and the EC50 [2] was > 1 µM.
Work on `[2H][C@](Nc1cc(Cl)c2ncc(C#N)c(NCC(C)(C)C)c2c1)(c1cn(C(C)(C)C)nn1)c1ccccc1Cl` [Example 109, 6-(((1-(tert-butyl)-1H-1,2,3-triazol-4-yl) (2-chlorophenyl)methyl-d)amino)-8-chloro-4-(neopentylamino) quinoline-3-carbonitrile] yielded an IC50 [1] of 0.017 µM and an EC50 [2] of 0.21 µM.
`[2H][C@](Nc1cc(Cl)c2ncc(C#N)c(Nc3cccc(Cl)c3OC3CC3)c2c1)(c1ccc(F)cc1)c1cn(C2CC2)nn1` [Example 110, (S)-8-chloro-4-((3-chloro-2-cyclopropoxyphenyl)amino)-6-(((1-cyclopropyl-1H-1,2,3-triazol-4-yl)(4-fluorophenyl)methyl-d)amino) quinoline-3-carbonitrile] was tested, and the IC50 [1] was 0.016 µM and the EC50 [2] was 0.133 µM.
With `[2H][C@](Nc1cc(Cl)c2ncc(C#N)c(N[C@@H](c3ccccc3)[C@@H]3C[C@H]3C#N)c2c1)(c1ccc(F)cc1)c1cn(C2CC2)nn1` [Example 111, 8-chloro-4-(((R)-((1R,2R)-2-cyanocyclopropyl) (phenyl)methyl)amino)-6-(((S)-(1-cyclopropyl-1H-1,2,3-triazol-4-yl)(4-fluorophenyl)methyl-d)amino)quinoline-3-carbonitrile] the IC50 [1] was 0.072 µM and the EC50 [2] was 0.96 µM.
`CC(C)(C)CNc1c(C#N)cnc2c(Cl)cc(N[C@H](c3cn(C4CC4)nn3)c3ccccc3CO)cc12` [Example 114, (S)-8-chloro-6-(((1-cyclopropyl-1H-1,2,3-triazol-4-yl)(2-(hydroxymethyl)phenyl)methyl)amino)-4-(neopentylamino) quinoline-3-carbonitrile] showed an IC50 [1] of 0.006 µM and an EC50 [2] of 0.19 µM.
`CC[C@@H](Nc1c(C#N)cnc2c(Cl)cc(N[C@@H](c3ccc(F)cc3)c3cn(CC(=O)O)nn3)cc12)c1ccccc1` [Example 115, 2-(4-((S)-((8-chloro-3-cyano-4-(((R)-1-phenylpropyl)amino)quinolin-6-yl)amino)(4-fluorophenyl)methyl)-1H-1,2,3-triazol-1-yl) acetic acid] was tested, and the IC50 [1] was 0.003 µM and the EC50 [2] was > 10 µM.
With `[2H][C@](Nc1cc(Cl)c2ncc(C#N)c(Nc3ccc(F)c(Cl)c3)c2c1)(c1ccc(F)cc1)c1cn(CC(=O)O)nn1` [Example 116, (S)-2-(4-(((8-chloro-4-((3-chloro-4-fluorophenyl)amino)-3-cyanoquinolin-6-yl)amino)(4-fluorophenyl)methyl-d)-1H-1,2,3-triazol-1-yl)acetic acid] the IC50 [1] was 0.014 µM and the EC50 [2] was > 10 µM.
`[2H][C@](Nc1cc(Cl)c2ncc(C#N)c(NCC(C)(C)C)c2c1)(c1cn(CC#N)nn1)c1ccccc1Cl` [Example 119, 8-chloro-6-(((2-chlorophenyl)(1-(cyanomethyl)-1H-1,2,3-triazol-4-yl)methyl-d)amino)-4-(neopentylamino) quinoline-3-carbonitrile] gave an IC50 [1] of 0.026 µM and an EC50 [2] of 0.166 µM.
`CC(C)(C)CNc1c(C#N)cnc2c(Cl)cc(N[C@H](c3cn(C4CC4)nn3)c3ccccc3OC(F)(F)F)cc12` [Example 122, (S)-8-chloro-6-(((1-cyclopropyl-1H-1,2,3-triazol-4-yl)(2-(trifluoromethoxy)phenyl)methyl)amino)-4-(neopentylamino) quinoline-3-carbonitrile] showed an IC50 [1] of 0.019 µM and an EC50 [2] of 0.201 µM.
For `[2H][C@@](Nc1cc(Cl)c2ncc(C#N)c(N[C@@H]3[C@@H]4CCC[C@@H]43)c2c1)(c1cn(C2CC2)nn1)c1ccccc1Cl` [Example 124, 4-(((1R,5S,6s)-bicyclo [3.1.0]hexan-6-yl)amino)-8-chloro-6-(((2-chlorophenyl)(1-cyclopropyl-1H-1,2,3-triazol-4-yl)methyl-d)amino) quinoline-3-carbonitrile], the IC50 [1] was 0.014 µM and the EC50 [2] was 0.218 µM.
`[2H][C@](Nc1cc(Cl)c2ncc(C#N)c(Nc3ccccc3OC(F)(F)F)c2c1)(c1ccc(F)cc1)c1cn(C2CC2)nn1` [Example 126, (S)-8-chloro-6-(((1-cyclopropyl-1H-1,2,3-triazol-4-yl)(4-fluorophenyl)methyl-d)amino)-4-((2-(trifluoromethoxy)phenyl)amino)quinoline-3-carbonitrile] was tested, and the IC50 [1] was 0.397 µM and the EC50 [2] was > 10 µM.
